Reference: publication PMC12396409, “Screening and hit evaluation of a microbial metabolite library against the pathogenic Plasmodium falciparum and Toxoplasma gondii parasites” (International Journal for Parasitology: Drugs and Drug …, 2025)
Where two headings read alike, the source gives them in different places.

Experiments:
[1] = system: P. falciparum 3D7 parasites; experiment: P. falciparum growth inhibition assay, 2-cycle (120 h treatment), delayed-death screen and dose-response; assay type: cell-based, Plasmodium falciparum; details: for 2) Growth (%) at 120 h: 2 μg/mL; for activity at 2 µg/mL: Plasmodium falciparum
[2] = system: P. falciparum 3D7 parasites; experiment: P. falciparum growth inhibition assay, 1-cycle (72 h treatment), SYBR DNA staining (library screen at 2 μg/mL and dose-response); assay type: cell-based, Plasmodium falciparum; details: for activity at 2 µg/mL: Plasmodium falciparum
[3] = system: T. gondii RH strain (RH-Tub-eYFP) tachyzoites; experiment: microbe, parasite or virus in culture; assay type: cell-based, Toxoplasma gondii; details: 72 h; for percent parasite growth at 2 µg/mL: Toxoplasma gondii
[4] = P. falciparum, 120 h, screen at 2 μg/mL, replicate 1
[5] = P. falciparum, 120 h, screen at 2 μg/mL, replicate 2
[6] = P. falciparum, 72 h, screen at 2 μg/mL, replicate 1
[7] = P. falciparum, 72 h, screen at 2 μg/mL, replicate 2
[8] = T. gondii, screen at 2 μg/mL, replicate 1
[9] = T. gondii, screen at 2 μg/mL, replicate 2
[10] = library screen at 2 μg/mL, 120 h, % growth, replicate 1
[11] = library screen at 2 μg/mL, 120 h, % growth, replicate 2
[12] = library screen at 2 μg/mL, 72 h, % growth, replicate 1
[13] = library screen at 2 μg/mL, 72 h, % growth, replicate 2
[14] = library screen at 2 μg/mL, % growth, replicate 1
[15] = library screen at 2 μg/mL, % growth, replicate 2
[16] = P. falciparum 3D7, 120 h, library screen at 2 μg/mL, % growth, replicate 1
[17] = P. falciparum 3D7, 120 h, library screen at 2 μg/mL, % growth, replicate 2
[18] = P. falciparum 3D7, 72 h, library screen at 2 μg/mL, % growth, replicate 1
[19] = P. falciparum 3D7, 72 h, library screen at 2 μg/mL, % growth, replicate 2
[20] = T. gondii RH, library screen at 2 μg/mL, % growth, replicate 1
[21] = T. gondii RH, library screen at 2 μg/mL, % growth, replicate 2
[22] = T. gondii, screen at 2 μg/mL, replicate 1, read-out: Tg_72h_%Growth_Rep1
[23] = T. gondii, screen at 2 μg/mL, replicate 2, read-out: Tg_72h_%Growth_Rep2

C=Cc1cc(OC)c2c(c1)c(=O)oc1c2cc(OC)c2c(O)ccc([C@H]3O[C@@H](C)[C@@H](O)[C@](C)(O)[C@@H]3O)c21 [Chrysomycin A]
2) Growth (%) at 120 h ([1]; P. falciparum, 120 h): -1.07%
Pf_120h_%Growth_Rep1 [1, 4]: 6.31%
Pf_120h_%Growth_Rep2 [1, 5]: -8.44%
1) Growth (%) at 72 h ([2]; P. falciparum, 2 μg/mL, 72 h): 36.94%
Mean ([2]; P. falciparum, 72 h, 2 μg/mL, mean of both replicates, growth (% of control)): 36.94
Pf_72h_%Growth_Rep1 [2, 6]: 16.21%
Pf_72h_%Growth_Rep2 [2, 7]: 57.66%
Tg_72h_%Growth_Rep1 [3, 8]: 53.94%
Tg_72h_%Growth_Rep2 [3, 9]: 65.86%

CC[C@H](C)[C@H]1O[C@]2(C=C[C@@H]1C)C[C@@H]1C[C@@H](C/C=C(\C)[C@@H](O[C@H]3C[C@H](OC)[C@@H](O[C@H]4C[C@H](OC)[C@H](NC(C)=O)[C@H](C)O4)[C@H](C)O3)[C@@H](C)/C=C/C=C3\CO[C@@H]4[C@H](O)C(C)=C[C@@H](C(=O)O1)[C@]34O)O2 [Eprinomectin B1a, reference compound]
3) Fold change (72 h/120 h) [1]: 2.2
2) Growth (%) at 120 h ([1]; P. falciparum, 120 h): 19.45%
Pf_120h_%Growth_Rep1 [1, 10]: 26.03%
Pf_120h_%Growth_Rep2 [1, 11]: 12.86%
1) Growth (%) at 72 h ([2]; P. falciparum, 2 μg/mL, 72 h): 42.60%
Pf_72h_%Growth_Rep1 [2, 12]: 53.90%
Pf_72h_%Growth_Rep2 [2, 13]: 31.29%
Tg_72h_%Growth_Rep1 [3, 14]: 139.55%
Tg_72h_%Growth_Rep2 [3, 15]: 101.56%

CO[C@H]1C[C@H](O[C@H]2[C@H](C)O[C@@H](O[C@@H]3/C(C)=C/C[C@@H]4C[C@@H](C[C@]5(C=C[C@H](C)[C@@H](C6CCCCC6)O5)O4)OC(=O)[C@@H]4C=C(C)[C@@H](O)[C@H]5OC/C(=C\C=C\[C@@H]3C)[C@]54O)C[C@@H]2OC)O[C@@H](C)[C@@H]1O [Doramectin]
Pf_120h_%Growth_Rep1 [1, 10]: 100.88%
Pf_120h_%Growth_Rep2 [1, 11]: 96.33%
Pf_72h_%Growth_Rep1 [2, 12]: 86.87%
Pf_72h_%Growth_Rep2 [2, 13]: 79.49%
Tg_72h_%Growth_Rep1 [3, 14]: 127.97%
Tg_72h_%Growth_Rep2 [3, 15]: 102.84%

COC1=CC(=O)C[C@@H](C)[C@]12Oc1c(Cl)c(OC)cc(OC)c1C2=O [BIA-G1212]
Pf_120h_%Growth_Rep1 [1, 16]: 92.82%
Pf_120h_%Growth_Rep2 [1, 17]: 104.36%
Pf_72h_%Growth_Rep1 [2, 18]: 92.41%
Pf_72h_%Growth_Rep2 [2, 19]: 108.96%
Tg_72h_%Growth_Rep1 [3, 20]: 123.15%
Tg_72h_%Growth_Rep2 [3, 21]: 96.50%

COc1cc(-c2ccccn2)nc(/C=N/O)c1SC [Collismycin]
Pf_120h_%Growth_Rep1 [1, 4]: -4.02%
Pf_120h_%Growth_Rep2 [1, 5]: 3.02%
Pf_72h_%Growth_Rep1 [2, 6]: 3.71%
Pf_72h_%Growth_Rep2 [2, 7]: 8.55%
Tg_72h_%Growth_Rep1 [3, 8]: -1.50%
Tg_72h_%Growth_Rep2 [3, 9]: 0.69%

COc1ccc2c(c1OC)C(=O)OC2C1c2cc3c(cc2CCN1C)OCO3 (stereo not drawn) [BIA-H1954]
Pf_120h_%Growth_Rep1 [1, 16]: 145.49%
Pf_120h_%Growth_Rep2 [1, 17]: 80.33%
Pf_72h_%Growth_Rep1 [2, 18]: 81.78%
Pf_72h_%Growth_Rep2 [2, 19]: 87.48%
Tg_72h_%Growth_Rep1 [3, 20]: 92.88%
Tg_72h_%Growth_Rep2 [3, 21]: 95.07%

CC(=O)OC[C@]12[C@H](O)C(=O)C(C)=C[C@H]1O[C@@H]1[C@H](O)C[C@@]2(C)[C@]12CO2 [Acetyldeoxynivalenol, 15-]
Pf_120h_%Growth_Rep1 [1, 10]: 6.22%
Pf_120h_%Growth_Rep2 [1, 11]: 4.98%
Pf_72h_%Growth_Rep1 [2, 12]: 5.76%
Pf_72h_%Growth_Rep2 [2, 13]: -0.64%
Tg_72h_%Growth_Rep1 [3, 14]: -2.45%
Tg_72h_%Growth_Rep2 [3, 15]: -0.58%

C[C@@H]1CCC[C@@H](O)CCC/C=C/c2cc(O)cc(O)c2C(=O)O1 [Zearalenol, alpha-]
Pf_120h_%Growth_Rep1 [1, 4]: 153.36%
Pf_120h_%Growth_Rep2 [1, 5]: 83.41%
Pf_72h_%Growth_Rep1 [2, 6]: 64.20%
Pf_72h_%Growth_Rep2 [2, 7]: 80.17%
Tg_72h_%Growth_Rep1 [3, 8]: 85.29%
Tg_72h_%Growth_Rep2 [3, 9]: 104.82%

CC=C1CN(C)C2Cc3c([nH]c4ccccc34)C(c3cc4[nH]c5c(c4cc3OC)CCN3CC4CC(CC)C3C5(C(=O)OC)C4)CC1C2C(=O)OC (stereo not drawn) [Voacamine]
activity at 2 µg/mL ([1]; 3D7, 120 h, P. falciparum, 120 h, screen at 2 μg/mL, replicate 1, read-out: Pf_120h_%Growth_Rep1): 106%
activity at 2 µg/mL ([1]; 3D7, 120 h, P. falciparum, 120 h, screen at 2 μg/mL, replicate 2, read-out: Pf_120h_%Growth_Rep2): 45.2%
activity at 2 µg/mL ([2]; 3D7, 72 h, P. falciparum, 72 h, screen at 2 μg/mL, replicate 1, read-out: Pf_72h_%Growth_Rep1): 56.2%
activity at 2 µg/mL ([2]; 3D7, 72 h, P. falciparum, 72 h, screen at 2 μg/mL, replicate 2, read-out: Pf_72h_%Growth_Rep2): 62%
percent parasite growth at 2 µg/mL [3, 22]: 97%
percent parasite growth at 2 µg/mL [3, 23]: 101%

Cc1cc(O)c2c(c1)C(=O)C13C(=C2O)C(=O)C2C(O)C1C1C(O)C3C(=O)C3=C(O)c4c(O)cc(C)cc4C(=O)C321 (stereo not drawn) [Rugulosin + form]
Pf_120h_%Growth_Rep1 ([1]; P. falciparum, 120 h, parasite screen 2 μg/mL, % growth, replicate 1): 82.55%
Pf_120h_%Growth_Rep2 ([1]; P. falciparum, 120 h, parasite screen 2 μg/mL, % growth, replicate 2): 131.94%
Pf_72h_%Growth_Rep1 ([2]; P. falciparum, 72 h, parasite screen 2 μg/mL, % growth, replicate 1): 87.73%
Pf_72h_%Growth_Rep2 ([2]; P. falciparum, 72 h, parasite screen 2 μg/mL, % growth, replicate 2): 120.80%
Tg_72h_%Growth_Rep1 ([3]; T. gondii, parasite screen 2 μg/mL, % growth, replicate 1): 114.00%
Tg_72h_%Growth_Rep2 ([3]; T. gondii, parasite screen 2 μg/mL, % growth, replicate 2): 82.13%

CCC1OC2(CCC1C)CC1CC(CC=C(C)CC(C)C=CC=C3COC4C(=NO)C(C)=CC(C(=O)O1)C34O)O2 (stereo not drawn) [BIA-M1532]
Pf_120h_%Growth_Rep1 ([1]; P. falciparum 3D7, 120 h, parasite screen at 2 μg/mL, % growth, replicate 1): 8.04%
Pf_120h_%Growth_Rep2 ([1]; P. falciparum 3D7, 120 h, parasite screen at 2 μg/mL, % growth, replicate 2): 16.57%
Pf_72h_%Growth_Rep1 ([2]; P. falciparum 3D7, 72 h, parasite screen at 2 μg/mL, % growth, replicate 1): 26.87%
Pf_72h_%Growth_Rep2 ([2]; P. falciparum 3D7, 72 h, parasite screen at 2 μg/mL, % growth, replicate 2): 18.08%
Tg_72h_%Growth_Rep1 ([3]; T. gondii, parasite screen at 2 μg/mL, % growth, replicate 1): 83.72%
Tg_72h_%Growth_Rep2 ([3]; T. gondii, parasite screen at 2 μg/mL, % growth, replicate 2): 81.98%

CCC(=O)N[C@H](COC(C)=O)[C@H](O)c1ccc([N+](=O)[O-])cc1 [Corynecin V]
Pf_120h_%Growth_Rep1 [1, 4]: 81.24%
Pf_120h_%Growth_Rep2 [1, 5]: 97.66%
Pf_72h_%Growth_Rep1 [2, 6]: 87.31%
Pf_72h_%Growth_Rep2 [2, 7]: 90.66%
Tg_72h_%Growth_Rep1 [3, 8]: 157.61%
Tg_72h_%Growth_Rep2 [3, 9]: 102.11%

CC1=C[C@H](O/C=C2/C(=O)O[C@@H]3c4ccccc4C[C@H]23)OC1=O [BIA-G1793]
Pf_120h_%Growth_Rep1 [1, 16]: 86.54%
Pf_120h_%Growth_Rep2 [1, 17]: 104.67%
Pf_72h_%Growth_Rep1 [2, 18]: 84.39%
Pf_72h_%Growth_Rep2 [2, 19]: 84.87%
Tg_72h_%Growth_Rep1 [3, 20]: 120.90%
Tg_72h_%Growth_Rep2 [3, 21]: 91.67%

CC(C)[C@@H]1NC(=O)[C@H](Cc2ccccc2)NC1=O [Cyclo(L-Phe-L-Val)]
Pf_120h_%Growth_Rep1 [1, 4]: 67.70%
Pf_120h_%Growth_Rep2 [1, 5]: 97.99%
Pf_72h_%Growth_Rep1 [2, 6]: 85.66%
Pf_72h_%Growth_Rep2 [2, 7]: 90.47%
Tg_72h_%Growth_Rep1 [3, 8]: 132.95%
Tg_72h_%Growth_Rep2 [3, 9]: 103.43%

COc1c(CC(C)O)c2c3c(CC(C)O)c(OC)c(=O)c4c(O)cc5c(c6c(cc(O)c(c1=O)c62)OCO5)c43 (stereo not drawn) [Cercosporin]
activity at 2 µg/mL ([1]; 3D7, P. falciparum, 120 h, screen at 2 μg/mL, replicate 1, read-out: Pf_120h_%Growth_Rep1): 7.99%
activity at 2 µg/mL ([1]; 3D7, P. falciparum, 120 h, screen at 2 μg/mL, replicate 2, read-out: Pf_120h_%Growth_Rep2): 4.28%
activity at 2 µg/mL ([2]; 3D7, P. falciparum, 72 h, screen at 2 μg/mL, replicate 1, read-out: Pf_72h_%Growth_Rep1): 9.71%
activity at 2 µg/mL ([2]; 3D7, P. falciparum, 72 h, screen at 2 μg/mL, replicate 2, read-out: Pf_72h_%Growth_Rep2): 9.49%
percent parasite growth at 2 µg/mL [3, 22]: 4.15%
percent parasite growth at 2 µg/mL [3, 23]: 11.5%
